The source of these data is PubChem BioAssay (NCI).

Where “and” joins values, the source holds several entries; their conditions need not be identical. Equal values may be shown once.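 Cultured in 96-well plates, cells were exposed to test compound for 48 hours across five concentrations. GI50 is the concentration that inhibits growth by half. TGI: concentration producing complete growth inhibition.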

Among the test systems are HOP-62 NSCLC; M14 melanoma; MOLT-4 leukemia; TK-10 renal; SF-268 CNS; UACC-62 melanoma; MCF7 breast; SK-MEL-2 melanoma; T-47D breast; DU-145 prostate.
Common to all, as to assay: inhibition of tumour cell growth, NCI panel, 48 h

For `CC1(C)Cc2nc3c(cc2C(=O)C1C=N/C(C#N)=C(\N)C#N)C(=O)C(C=N/C(C#N)=C(\N)C#N)C(C)(C)C3` (configuration not stated), the TGI in the test on HOP-62 NSCLC is 6.94 µM; with M14 melanoma, 3.05 µM; in the test on MOLT-4 leukemia, greater than 100 µM; in the test with TK-10 renal it was 18 µM; with SF-268 CNS, 3.39 µM; in the test on UACC-62 melanoma, 3.56 µM. Besides, the TGI in the test on MCF7 breast was 6.23 µM; in the test on SK-MEL-2 melanoma it was 4.69 µM; in the test on T-47D breast it was 4.3 µM; in the test with DU-145 prostate, 8.44 µM.

With `O=C(O)CCSCc1ccccc1`, the TGI in the test on HOP-62 NSCLC, in the test on M14 melanoma, with MOLT-4 leukemia, in the test with TK-10 renal, in the test with SF-268 CNS and with UACC-62 melanoma was greater than 100 µM each time. For the same compound, the TGI in the test with MCF7 breast, in the test with SK-MEL-2 melanoma, with T-47D breast and with DU-145 prostate was greater than 100 µM in each case.

As for `COc1cc(NCCC2CCCCN2)c2ncccc2c1` (configuration not stated), the TGI was greater than 100 µM in the test on HOP-62 NSCLC; 44.9 µM in the test with M14 melanoma; greater than 68.6 µM in the test on MOLT-4 leukemia; greater than 100 µM with TK-10 renal; greater than 100 µM with SF-268 CNS; greater than 59.9 µM in the test with UACC-62 melanoma. Also, the TGI in the test on MCF7 breast was 1.96 µM; with SK-MEL-2 melanoma it was greater than 91.1 µM; in the test on T-47D breast, 4.83 µM; in the test with DU-145 prostate, greater than 100 µM.

On to `C/C=C(\C)C(O)C(C)C(O)C/C=C(C)/C=C(\C)C/C(C)=C/C/C=C(\C)C(O)C(C)c1ccc(CCC)c(=O)o1` (configuration not stated), for which the TGI in the test on HOP-62 NSCLC was 30.4 µM; in the test with M14 melanoma, 28.4 µM; with MOLT-4 leukemia it was greater than 100 µM; with TK-10 renal, 71.8 µM; with SF-268 CNS, 37.5 µM; in the test on UACC-62 melanoma it was 26.1 µM. Further, the TGI with MCF7 breast was 22.9 µM; in the test with SK-MEL-2 melanoma, 45 µM; in the test with T-47D breast it was 65.4 µM; with DU-145 prostate, 91.7 µM.

With `CC(=O)OCC1OC(n2c(-c3ccccc3)c(C(C)=O)c(-c3cccc4ccccc34)c(C#N)c2=S)C(OC(C)=O)C(OC(C)=O)C1OC(C)=O` (configuration not stated), the TGI in the test on HOP-62 NSCLC, in the test on M14 melanoma, in the test with MOLT-4 leukemia, with TK-10 renal, in the test with SF-268 CNS and in the test with UACC-62 melanoma was greater than 100 µM throughout. Also, the TGI in the test on MCF7 breast, in the test on SK-MEL-2 melanoma, in the test with T-47D breast and in the test with DU-145 prostate was greater than 100 µM in each case. Also, in the test on UACC-62 melanoma, the GI50 is 80.4 µM and 26.7 µM.

Regarding `N#CC(Cc1ccccc1)N(CCC1=CCCCC1)Cc1ccccc1` (configuration not stated), the TGI in the test on HOP-62 NSCLC was greater than 100 µM; in the test on M14 melanoma, greater than 100 µM; in the test with MOLT-4 leukemia, 90.6 µM; in the test with TK-10 renal it was greater than 100 µM; with SF-268 CNS, greater than 100 µM; in the test on UACC-62 melanoma, greater than 100 µM. The TGI in the test with MCF7 breast, in the test with SK-MEL-2 melanoma, in the test on T-47D breast and in the test with DU-145 prostate was greater than 100 µM each time.

As to `CN(C)C(c1ccccc1)C1COC2Cc3ccccc3C1O2` (configuration not stated), the TGI in the test with HOP-62 NSCLC, in the test on M14 melanoma, in the test on MOLT-4 leukemia, in the test on TK-10 renal, in the test on SF-268 CNS and in the test with UACC-62 melanoma was greater than 100 µM throughout. Besides, the TGI with MCF7 breast, with SK-MEL-2 melanoma, with T-47D breast and with DU-145 prostate was greater than 100 µM throughout. In addition, the GI50 in the test with MCF7 breast was 84 µM and 23.6 µM.

Turning to `Cc1cccc2c1c(=O)c1c(O)c3c(cc1n2C)OC(C)(C)C=C3`, the TGI in the test with HOP-62 NSCLC, in the test on M14 melanoma, with MOLT-4 leukemia, in the test with TK-10 renal, with SF-268 CNS and in the test on UACC-62 melanoma was greater than 10 µM throughout. The TGI with MCF7 breast, with SK-MEL-2 melanoma, in the test on T-47D breast and with DU-145 prostate was greater than 10 µM throughout.

With `Cc1ccc(O)c(C2=CC(c3cccc(Cl)c3)SC(N)=N2)c1` (configuration not stated), the TGI was 64.1 µM in the test on HOP-62 NSCLC; 68.3 µM with M14 melanoma; 61.4 µM in the test on MOLT-4 leukemia; 51.7 µM in the test with TK-10 renal; greater than 100 µM in the test with SF-268 CNS; 28.8 µM in the test on UACC-62 melanoma. In addition, the TGI is greater than 100 µM in the test with MCF7 breast, 38.2 µM with SK-MEL-2 melanoma, 99.2 µM with T-47D breast and greater than 100 µM in the test on DU-145 prostate.
